Marks after values point to notes of the source that are not given here. Where a SMILES comes first, the peptide text is derived from it. Bridges are numbered along the chain shown (N, C = ends). Where no end group is shown, it is not given here. [ ]: non-standard residue; d: D form. Orn = NCCC[C@H](N)C(=O)O
Assays:
leucine aminopeptidase = target: T1, leucine aminopeptidase (Sus scrofa, UniProt P28839); test: Hydrolysis kinetics in leucine aminopeptidase solution; type: in vitro ADME, porcine; settings: 50 mM phosphate buffer pH 7.4, 37° C., leucine aminopeptidase 25 U/ml; for half-life: pig
T1 construct: purchased Sigma, UK type III-CP (catalogue number not given); host or cells: porcine kidney
T1 sequence (P28839 1-519): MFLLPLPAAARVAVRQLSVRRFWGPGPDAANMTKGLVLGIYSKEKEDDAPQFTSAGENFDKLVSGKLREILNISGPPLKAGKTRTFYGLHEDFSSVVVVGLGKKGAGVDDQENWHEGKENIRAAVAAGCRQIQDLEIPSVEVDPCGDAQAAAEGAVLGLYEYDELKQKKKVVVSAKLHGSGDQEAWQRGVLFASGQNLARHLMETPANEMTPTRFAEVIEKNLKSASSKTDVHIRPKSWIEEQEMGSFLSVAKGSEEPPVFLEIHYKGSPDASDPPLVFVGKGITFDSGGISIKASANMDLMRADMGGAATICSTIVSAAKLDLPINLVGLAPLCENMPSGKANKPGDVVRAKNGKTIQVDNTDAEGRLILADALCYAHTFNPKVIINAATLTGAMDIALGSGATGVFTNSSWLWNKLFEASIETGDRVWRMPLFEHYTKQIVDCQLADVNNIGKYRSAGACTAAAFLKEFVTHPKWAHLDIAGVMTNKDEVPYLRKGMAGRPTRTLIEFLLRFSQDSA
Protocol: (§1) Carboxypeptidase A (EC 3.4.17.1) type I from bovine pancreas, leucine aminopeptidase (EC 3.4.11.1) type III-CP from porcine kidney, α-chymotrypsin (EC […]) from bovine pancreas, and pepsin A (EC 3.4.23.1) from porcine stomach mucosa […] were obtained from Sigma, UK.
(§2) Gradient HPLC analysis of samples from in vitro kinetic measurements performed as described below was performed using a Hewlett Packard HP 1100 HPLC system consisting of a HP 1100 Binary Pump, a HPI 100 Autosampler, a HPI 100 Column Thermostat and a HP 1100 Variable Wavelength Detector. A Merck LiChroCART column (125×4 mm I.D.) and a LiChroCART precolumn (4×4 mm I.D.) packed with Lichrospher RP-18 (5 .μum particles) was used. The column was kept at 25° C. or 75° C. and the column effluent was measured by UV detection at 215 run. Separation of the peptide conjugates or the native peptides from degradation products and constituents of the reaction solutions was accomplished using gradient elution of the column with mixtures of mobile phase A (0.1 vol % TFA in water) and mobile phase B (0.085 vol % TFA in acetonitrile) at a flow rate of 1 ml/min.
(§3) The degradation of the peptide conjugate and the corresponding native peptide were studied at 37° C. in a 50 mM phosphate buffer solution at pH 7.4 containing leucine arninopeptidase (25 U/ml) or carboxypeptidase A (1 or 25 U/ml). Experiments were initiated by addition of an aliquot (100 μl) of a stock solution (1 mg/ml) of the peptide conjugate or the native peptide to 900 μl preheated enzyme solution giving a final concentration of ˜0.1 mg/ml (10^−5-10^−4M) of the peptide conjugate or the native peptide. The peptide/enzyme solution was kept at 37° C. using a SHT200D block heater from Stuart Scientific. At appropriate time intervals, samples of 100 μl were withdrawn from the peptide/enzyme solution, mixed thoroughly with 20 μl 25% TFA in acetonitrile in order to stop the enzymatic degradation process and analysed by HPLC as described above. Half-lives (t1/2) for the peptide conjugate and the corresponding native peptide in the enzyme solutions were calculated from plots of the natural logarithm to the concentration of the residual peptide (HPLC peak heights) against time using the formula t/2=1/kobs×ln(2), where kobs is the apparent first-order rate constant for the observed degradation.

[1] = Hematological responses after p.o. EMP-1 / EMP-1-K6 in mice; type: in vivo; settings: male mice, 956 nmol p.o., 4 days after administration
Protocol: To examine the biological efficacy of peroral (p.o.) treatment with EMP-1 (SEQ ID NO: 117) and EMP-1-K6 (SEQ ID NO: 93), the hematological responses of an equimolar p.o. dose (956 nmol) of EMP-1 (2 mg) and EMP-1-K6 (SEQ ID NO: 93) (2.56 mg) were examined in male mice (n=8/group). To examine the time course of the hematological responses, a 10 μl venous blood sample was collected from the retroorbital plexus on days 0, 2, and 4. Body weight (BW) and the plasma concentration of hemoglobin (P-Hgb), the hematocrit value (Hct), the red blood cell count (RBC), and the mean cell hemoglobin concentration (MCHC) were determined before (Day 0), and 2 and 4 days after administration of EMP-1 (SEQ ID NO: 117) or EMP-1- K6 (SEQ ID NO: 93).

carboxypeptidase A = target: T2, carboxypeptidase A (Bos taurus, UniProt P00730); test: Hydrolysis kinetics in carboxypeptidase A solution; type: in vitro ADME, bovine; settings: 50 mM phosphate buffer pH 7.4, 37° C., carboxypeptidase A 1 U/ml
T2 construct: purchased Sigma, UK type I (catalogue number not given); host or cells: bovine pancreas
T2 sequence (P00730 111-419): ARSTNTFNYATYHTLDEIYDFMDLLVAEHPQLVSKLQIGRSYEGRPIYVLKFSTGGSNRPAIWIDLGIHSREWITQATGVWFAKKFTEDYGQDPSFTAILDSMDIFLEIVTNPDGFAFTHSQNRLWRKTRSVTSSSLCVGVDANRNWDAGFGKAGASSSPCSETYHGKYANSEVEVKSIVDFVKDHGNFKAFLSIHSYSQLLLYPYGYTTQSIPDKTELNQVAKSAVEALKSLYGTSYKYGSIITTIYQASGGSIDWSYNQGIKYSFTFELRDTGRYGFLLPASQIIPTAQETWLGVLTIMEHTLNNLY
Protocol: as §1, §2, §3

vas deferens = settings: read-out: EC50 value; half maximal inhibition of electrically-induced contraction, mouse vas deferens
Protocol: (§4) In short: vasa deferentia were isolated from male mice weighing 20-30 g (Mellegaard breeding, DK) and suspended through two electrodes in 10 ml baths at resting tension of 1 g. […] The tissues were stimulated electrically (70 V, 1 ms duration; 0.1 Hz) and contractions were recorded isometrically on a chart recorder. After equilibration of the tissue for at least 20 min, drugs were added in the bath and the maximum effects were measured.
Prior to addition of the plasma sample, a standard dose-response curve was generated in each preparation in order to express the inhibitory activity as concentration of each test substance. Thus, the calculated concentration is a reflection of inhibitory activity in the vas deferens bioassay preparation.
Where initial=initial […] contraction force prior to addition of test substance; conc=concentration of test substance; EC50=concentration of test substance that […] produced half maximal inhibition of electrically-induced contraction; background=contraction force during maximal relaxation.

[2] = Bioavailability in mice: functional activity in serum after p.o. or i.v. dosing (vas deferens bioassay); settings: 30 min
Protocol: Blood samples were centrifuged immediately (3000 g, 4° C.) and serum was isolated and used for activity determination.
as §4

osteoblast = test: Osteoblast retraction assay; type: cell-based, mice; settings: 10 nM, 1 h, mouse calvaria osteoblasts
Protocol: Retraction assays were performed with osteoblast prepared from calvaria of 1-day old mice according to published protocols (Miller et al., 1976, Science 192:1340-1343). In brief, osteoblasts were seeded in serum-free minimal essential medium-α (αMEM) at a density of 3000 cells per cm^2 into 96-well tissue culture plates coated with 50 μg/ml of type I collagen in phosphate-buffered saline containing 0.1% bovine serum albumin (PBS). One day after plating, PTH compounds were added to a final concentration of 10 nM and incubation was carried out for 1 h. Cells were then fixed and stained with toluidine blue, and the number of retracted cells was counted by visual inspection.

## CC(C)C[C@@H]1NC(=O)[C@@H]2CCCN2C(=O)CNC(=O)[C@H](Cc2ccccc2)NC(=O)[C@H](Cc2c[nH]cn2)NC(=O)[C@@H](NC(=O)[C@H](CO)NC(=O)[C@H](Cc2ccc(O)cc2)NC(=O)[C@@H](NC(=O)CNC(=O)CN)[C@@H](C)O)CSSC[C@@H](C(=O)N[C@@H](CCCCN)C(=O)N2CCC[C@H]2C(=O)N[C@@H](CCC(N)=O)C(=O)NCC(=O)NCC(=O)N[C@@H](CCCCN)C(=O)N[C@@H](CCCCN)C(=O)N[C@@H](CCCCN)C(=O)N[C@@H](CCCCN)C(=O)N[C@@H](CCCCN)C(=O)N[C@@H](CCCCN)C(=O)O)NC(=O)[C@H](C(C)C)NC(=O)[C@H](Cc2c[nH]c3ccccc23)NC(=O)[C@H]([C@@H](C)O)NC1=O [EMP-1-(Lys)6-OH, H-Gly-Gly-Thr-Tyr-Ser-Cys-His-Phe-Gly-Pro-Leu-Thr-Trp -Val-Cys-Lys-Pro-Gln-Gly-Gly-LM-OH] (H-GGTYSCHFGPLTWVCKPQGGKKKKKK-OH; disulfide 6-15)
Leucine aminopeptidase
  half-life: > 100 h
[1]
  Change in BW: 3.4 ± 0.3 g
  Change in Hematocrit: 4.5 ± 0.9 %
  Change in MCHC: 0.2 ± 1.5 mM
  Change in P-hgb: +2.4 ± 0.3 mM
  Change in RBC: 1.0 ± 0.1* 10^12 cells/1
  Relative change in BW: (15 ± 2%)
  Relative change in Hematocrit: (12.3 ± 2.3%*)
  Relative change in MCHC: (0 ± 2%)
  Relative change in P-hgb: (+15 ± 2%*)
  Relative change in RBC: (17 ± 2%*)
Carboxypeptidase A
  half-life: > 20 h

## CC(C)C[C@@H]1NC(=O)[C@@H]2CCCN2C(=O)CNC(=O)[C@H](Cc2ccccc2)NC(=O)[C@H](Cc2c[nH]cn2)NC(=O)[C@@H](NC(=O)[C@H](CO)NC(=O)[C@H](Cc2ccc(O)cc2)NC(=O)[C@@H](NC(=O)CNC(=O)CN)[C@@H](C)O)CSSC[C@@H](C(=O)N[C@@H](CCCCN)C(=O)N2CCC[C@H]2C(=O)N[C@@H](CCC(N)=O)C(=O)NCC(=O)NCC(=O)O)NC(=O)[C@H](C(C)C)NC(=O)[C@H](Cc2c[nH]c3ccccc23)NC(=O)[C@H]([C@@H](C)O)NC1=O [EMP-1-OH, H-GIy-Gly-Thr-Tyr-Ser-Cys-His-Phe-Gly-Pro-Leu-Thr-Trp -Val-Cys-Lys-Pro-Gln-Gly-GIy-OH, reference compound] (H-GGTYSCHFGPLTWVCKPQGG-OH; disulfide 6-15)
Leucine aminopeptidase
  pseudo first-order rate constant for the degradation: 0.0015 min⁻¹
  half-life: 7.7 h
[1]
  Change in BW: 3.4 ± 0.2 g
  Change in Hematocrit: 0.3 ± 0.8%
  Change in MCHC: 2.9 ± 1.5 mM
  Change in P-hgb: +1.5 ± 0.5 mM
  Change in RBC: 0.6 ± 0.2 10^12 cells/1
  Relative change in BW: (16 ± 1%)
  Relative change in Hematocrit: (0.8 ± 1.8%)
  Relative change in MCHC: (4 ± 2%)
  Relative change in P-hgb: (+8 ± 1%)
  Relative change in RBC: (9 ± 3%)
Carboxypeptidase A
  half-life: > 50 h

## CC(C)C[C@H](NC(=O)[C@H](Cc1ccccc1)NC(=O)CNC(=O)CNC(=O)[C@@H](N)Cc1ccc(O)cc1)C(=O)N[C@@H](CCCN)C(=O)N[C@@H](CCCN)C(=O)N[C@@H](CCCN)C(=O)N[C@@H](CCCN)C(=O)N[C@@H](CCCN)C(=O)N[C@@H](CCCN)C(=O)O [Leu-Enkephalin-(Orn)6-OH, H-Tyr-Gly-Gly-Phe-Leu-(Orn)6-OH] (H-YGGFL[Orn][Orn][Orn][Orn][Orn][Orn]-OH)
Vas deferens
  EC50: > 20000 nM
Leucine aminopeptidase
  pseudo first-order rate constant for the degradation: 0.0064 min⁻¹
  half-life: 1.8 h
Carboxypeptidase A
  half-life: > 100 h

## CC(C)C[C@H](NC(=O)[C@H](Cc1ccccc1)NC(=O)CNC(=O)CNC(=O)[C@@H](N)Cc1ccc(O)cc1)C(=O)O [Leu-Enkephalin-OH, H-Tyr-Gly-Gly-Phe-Leu-OH, reference compound]
[2]; 50 mg/kg i.v.
  Functional activity in serum: no activity was detected
[2]; 50 mg/kg p.o.
  Functional activity in serum: no activity was detected
Vas deferens
  EC50: 65 nM
Leucine aminopeptidase
  pseudo first-order rate constant for the degradation: 0.68 min⁻¹
  half-life: 0.0167 h
Carboxypeptidase A
  pseudo first-order rate constant for the degradation: 0.98 min⁻¹
Carboxypeptidase A; cattle, carboxypeptidase A solution (1 U/ml) in phosphate buffer
  half-life: 0.0117 h

## H-YGGFLKKEEEK-OH [Leu-Enkephalin-(Lys2-Glu3-Lys)-OH, H-Tyr-Gly-Gly-Phe-Leu-Lys-Lys-Glu-Glu-Glu-Lys-OH]
Vas deferens
  EC50: 680 nM

## YGGFLKEKEKE [Leu-Enkephalin-(Lys-Glu)3-OH]
Vas deferens
  EC50: 350 nM

## YGGFLKKKKKKKKKK [Leu-Enkephalin-(Lys)10-OH, H-Tyr-Gly-Gly-Phe-Leu-Lys10-OH]
Vas deferens
  EC50: 2500 nM
Leucine aminopeptidase
  half-life: > 100 h
Carboxypeptidase A
  half-life: 38.5 h
  pseudo first-order rate constant for the degradation: 0.0003 min⁻¹

B1: Parathyroid Hormone: native, human parathyroid hormone (protein, UniProt P01270 32-115, looked up)
Parathyroid hormone: SVSEIQLMHNLGKHLNSMERVEWLRKKLQDVHNFVALGAPLAPRDAGSQRPRKKEDNVLVESHEKSLGEADKADVNVLTKAKSQ
modifications: Parathyroid hormone
osteoblast
  Retraction assay % Retracted cells: 63.7%
osteoblast; listed as PTH
  Retraction assay % Retracted cells: ~64%

Source: patent US7414107B2, “Pharmacologically active peptide conjugates having a reduced tendency towards enzymatic hydrolysis” (priority 1998, dated 2008)
